Structures are written as SMILES.

Broadly, the IC50 is the concentration needed to halve the response being measured.

In one test the target is T1, porcine pancreatic lipase (Sus scrofa, UniProt P00591).
T1 construct: purchased Abnova
T1 sequence (P00591 1-450): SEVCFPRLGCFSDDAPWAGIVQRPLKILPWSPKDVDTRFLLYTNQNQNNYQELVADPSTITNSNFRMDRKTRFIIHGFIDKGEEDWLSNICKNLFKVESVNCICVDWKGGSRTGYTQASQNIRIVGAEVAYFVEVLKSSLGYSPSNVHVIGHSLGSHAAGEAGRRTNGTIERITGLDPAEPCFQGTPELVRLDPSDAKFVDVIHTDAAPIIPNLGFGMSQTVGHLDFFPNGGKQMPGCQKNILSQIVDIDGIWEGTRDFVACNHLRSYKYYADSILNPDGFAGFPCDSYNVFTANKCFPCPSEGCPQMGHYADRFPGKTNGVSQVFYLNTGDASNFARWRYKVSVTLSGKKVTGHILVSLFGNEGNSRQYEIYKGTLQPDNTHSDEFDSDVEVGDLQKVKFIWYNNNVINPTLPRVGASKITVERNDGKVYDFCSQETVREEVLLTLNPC
Kind of test: Pancreatic lipase inhibitory activity. The class given is biochemical. As to conditions: isolated compounds, Table S7; read-out: Inhibition (IC50) Lipase. On the procedure:
(§1) Phenolic acids and flavonoids used in HPLC analysis as well as all other reagents for biological investigations were obtained from Sigma Chemical Company […]
(§2) Inhibitory activity against key enzymes related to metabolic syndrome (MS) All assays were performed in 96-well plates. Stock solutions of the extract (100 mg/mL), fractions (100 mg/mL), and isolated compounds (1000 µM) were prepared. Tested samples that exceeded […]
(§3) inhibitory concentration (IC50). The percentage of enzyme inhibition was calculated according to […]
(§4) % Inhibition = (A−B) − (C−D) x 100 […]
Pancreatic lipase inhibitory activity
The pancreatic lipase inhibitory activity was assessed using p-nitrophenyl dodecanoate (p-NPD) as substrate and porcine pancreatic lipase (Abnova, Taipei, Taiwan) which was described […]
previously. […] The tested samples were diluted in DMSO were incubated with 10 g L−1 PL (diluted in 0.05 mol L−1 Tris-HCl buffer pH 8.0, containing […]
in 0.5% TritonX 100) (m v−1) was added to initiate the reaction. The absorbances were measured
Regarding `O=c1c(O[C@@H]2O[C@H](CO)[C@@H](O)[C@H](O)[C@H]2O)c(-c2ccc(O)c(O)c2)oc2cc(O)cc(O)c12` [P2, isoquercitrin], the IC50 turned out to be 0.57 ± 0.03 µM.
As for `COc1cc(-c2oc3cc(O)cc(O)c3c(=O)c2O[C@@H]2O[C@H](CO)[C@@H](O)[C@H](O)[C@H]2O)ccc1O` [P3, isorhamnetin-3-O-β-D-glucopyranoside], the IC50 stood at 0.78 ± 0.75 µM.
For `C[C@@H]1O[C@@H](OC[C@H]2O[C@@H](Oc3c(-c4ccc(O)c(O)c4)oc4cc(O)cc(O)c4c3=O)[C@H](O)[C@@H](O)[C@@H]2O)[C@H](O)[C@H](O)[C@H]1O` [P1, rutin], the IC50 came to 0.98 ± 0.67 µM.
Turning to `O=C(O)/C=C/c1ccccc1` [P6, cinnamic acid], the IC50 was found to be 0.35 ± 0.52 µM.
With `O=C(/C=C/c1ccc(O)c(O)c1)O[C@@H]1C[C@](O)(C(=O)O)C[C@@H](O)[C@H]1O` [P4, chlorogenic acid], the IC50 stood at 1.31 ± 0.29 µM.

In a further test the target is T2, inducible nitric oxide synthase (iNOS) (Mus musculus, UniProt P29477).
T2 construct: endogenous in cells; host or cells: RAW264.7 mouse macrophages, LPS-induced
T2 sequence (P29477 1-1144): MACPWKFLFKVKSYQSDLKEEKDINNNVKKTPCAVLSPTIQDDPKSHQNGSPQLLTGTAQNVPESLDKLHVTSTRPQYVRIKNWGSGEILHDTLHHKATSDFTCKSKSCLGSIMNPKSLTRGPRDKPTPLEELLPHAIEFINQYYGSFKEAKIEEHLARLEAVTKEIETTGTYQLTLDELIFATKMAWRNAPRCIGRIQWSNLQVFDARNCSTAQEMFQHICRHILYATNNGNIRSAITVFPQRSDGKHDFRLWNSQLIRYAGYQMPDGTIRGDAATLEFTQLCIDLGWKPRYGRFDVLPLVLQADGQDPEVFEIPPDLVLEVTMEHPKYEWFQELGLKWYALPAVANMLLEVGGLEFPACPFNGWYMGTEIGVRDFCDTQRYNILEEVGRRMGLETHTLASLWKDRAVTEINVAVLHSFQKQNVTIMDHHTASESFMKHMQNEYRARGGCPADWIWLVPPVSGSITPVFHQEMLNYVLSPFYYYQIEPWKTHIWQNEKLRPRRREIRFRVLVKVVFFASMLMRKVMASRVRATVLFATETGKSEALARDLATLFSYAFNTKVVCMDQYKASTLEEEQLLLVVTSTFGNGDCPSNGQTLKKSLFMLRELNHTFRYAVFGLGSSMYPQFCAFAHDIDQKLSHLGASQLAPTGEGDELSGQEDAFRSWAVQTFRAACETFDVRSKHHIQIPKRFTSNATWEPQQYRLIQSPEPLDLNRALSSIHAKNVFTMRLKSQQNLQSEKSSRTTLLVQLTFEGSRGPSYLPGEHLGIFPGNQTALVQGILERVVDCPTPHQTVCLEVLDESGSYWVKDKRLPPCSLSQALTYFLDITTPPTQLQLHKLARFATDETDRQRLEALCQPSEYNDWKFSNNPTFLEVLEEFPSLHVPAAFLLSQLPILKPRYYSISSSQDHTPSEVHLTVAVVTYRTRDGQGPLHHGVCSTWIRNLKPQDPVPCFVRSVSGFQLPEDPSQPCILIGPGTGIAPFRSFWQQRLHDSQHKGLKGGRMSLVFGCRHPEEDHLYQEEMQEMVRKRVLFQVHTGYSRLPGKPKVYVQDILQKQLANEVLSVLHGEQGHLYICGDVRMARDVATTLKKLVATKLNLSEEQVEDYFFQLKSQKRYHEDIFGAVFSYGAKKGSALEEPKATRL
Put plainly: iNOS inhibitory activity in LPS-induced RAW264.7 macrophages (nitrite, Griess reagent). The format is cell-based. Conditions: isolated compounds, Table S7, RAW264.7 cells, read-out: Inhibition (IC50) iNOS (converted). On the procedure:
as §1, §2, §3, §4
Inducible nitric oxide synthase (iNOS) inhibitory activity iNOS inhibitory activity was determined in mouse macrophage cells (RAW264.7, Shanghai BOGO Industrial Co., Ltd., China) according to a previously designed method. Phenol red-free RPMI medium from Thermo-Fisher was used to develop macrophages. It was supplemented with 10% bovine calf serum, 100 U/mL of penicillin G sodium from Sigma-Aldrich, and 100 µg/mL of streptomycin (Sigma-Aldrich). Cells (50,000/well) were seeded onto 96-well plates, which were […]
(The Griess reaction detects nitrite, a stable product of nitric oxide.)
`O=c1c(O[C@@H]2O[C@H](CO)[C@@H](O)[C@H](O)[C@H]2O)c(-c2ccc(O)c(O)c2)oc2cc(O)cc(O)c12` [P2, isoquercitrin]: the IC50 is 4.8 ± 0.99 µM.
Consider `COc1cc(-c2oc3cc(O)cc(O)c3c(=O)c2O[C@@H]2O[C@H](CO)[C@@H](O)[C@H](O)[C@H]2O)ccc1O` [P3, isorhamnetin-3-O-β-D-glucopyranoside], for which the IC50 is 4.89 ± 0.78 µM.
`C[C@@H]1O[C@@H](OC[C@H]2O[C@@H](Oc3c(-c4ccc(O)c(O)c4)oc4cc(O)cc(O)c4c3=O)[C@H](O)[C@@H](O)[C@@H]2O)[C@H](O)[C@H](O)[C@H]1O` [P1, rutin]: the IC50 is 4.99 ± 1.94 µM.
On the same count and under the same terms, as for `O=C(O)/C=C/c1ccccc1` [P6, cinnamic acid], the figure is 4.76 ± 0.25 µM; as for `O=C(/C=C/c1ccc(O)c(O)c1)O[C@@H]1C[C@](O)(C(=O)O)C[C@@H](O)[C@H]1O` [P4, chlorogenic acid], 4.79 ± 0.89 µM.

The values above are taken from PMC10363080, “Modulatory Effect of Pyrus pyrifolia Fruit and its Phenolics on Key Enzymes against Metabolic Syndrome: Bioassay-Guided Approach, HPLC Analysis, and In Silico Study” (Plant Foods for Human Nutrition (Dordrecht, Netherlands), 2023).
